The values that follow come from article PMC6315694, “Synthesis of Pseudellone Analogs and Characterization as Novel T-type Calcium Channel Blockers” (Marine Drugs, 2018).

Common to all, as to type: cell-based
One test deals with T1, N-type CaV2.2 (Homo sapiens, UniProt Q00975).
T1 construct: endogenous in cells
As to the kind of experiment: HVA calcium channel FLIPR assay, N-type (SH-SY5Y cells). Particulars: SH-SY5Y, 10 µM nifedipine present, N = 3, mean ± SEM, read-out: IC50 CaV2.2 (HVA CaVs). On the procedure:
(§1) The human embryonic kidney 293 (HEK 293) cell lines (from Emmanuel Bourinet, Montpellier, France) stably expressing CaV3.2 or CaV3.3 were cultured under 5% carbon dioxide at 37 °C in Dulbecco’s Modified Eagle Medium (DMEM) Glutamax (Gibco, Life Technologies, Carlsbad, CA, USA) supplemented with 10% (v/v) fetal bovine serum (FBS), 100 U/mL penicillin, 100 μg/mL streptomycin (Gibco, Life Technologies), and 750 μg/mL geneticin (G418) (Gibco, Life Technologies). The Chinese Hamster Ovary (CHO) cell lines (Emmanuel Bourinet, Montpellier, France) expressing CaV3.1 were cultured under 5% carbon dioxide at 37 °C in Alpha Minimum Essential Media (MEM) Glutamax (Gibco, Life Technologies), supplemented with 10% (v/v) fetal bovine serum (FBS) and 300 μg/mL geneticin (G418) (Gibco, Life Technologies). The human neuroblastoma SH-SY5 Y cells (Victor Diaz, Goettingen, Germany) were cultured under 5% carbon dioxide at 37 °C in RPMI 1640 antibiotic-free medium (Invitrogen, Carlsbad, CA, USA), supplemented with 15% FBS and 2 mM GlutaMAX™ (Invitrogen). D-PBS (Gibco, Life Technologies) was used to wash the cells, and 0.25% Trypsin-EDTA (Gibco, Life Technologies) was used to detach cells from the flask surface. They were split in a ratio of 1:5 (ideally 1000 cells/cm^2) when they reached 70%–80% confluence (every 2–3 days). Transiently transfected CaV3.1HEK293 T cells were used in FLIPR Assays. HEK 293 T cells were cultured under 5% carbon dioxide at 37 °C in DMEM supplemented with 10% (v/v) FBS. D-PBS was used to wash the cells, and 0.25% Trypsin-EDTA was used to detach cells from the flask surface. The cells were split and seeded at 6 million cells per T175 flask, to reach 70%–80% confluence after 24 h. The next day, 12 μg DNA of human CaV3.1 was incubated in 900 μL serum-free DMEM with 36 μL FuGENE HD transfection reagent (Promega Corporation, Madison, WI, US) (1:3 DNA/Fugene ratio) for 20 min, and then the mixture was added into the cell flask slowly, drop by drop. After the transfection, the cells were cultured under 5% carbon dioxide at 37 °C for 24 h and then moved to a 28 °C incubator.
SH-SY5Y cells were seeded into 384-well black wall clear bottom plates at a density of 15,000 cells per well, resulting in 90%–95% confluence after 24 h. The media were then removed from the wells and replaced with 20 μL of 10% calcium 4 dye (Molecular Devices) in physiological salt solution (PSS) (containing 5.9 mM KCl, 1.4 mM MgCl2, 10 mM HEPES, 1.2 mM NaH2 PO4, 5 mM NaHCO3, 140 mM NaCl, 11.5 mM glucose, and 1.8 mM CaCl2, pH 7.4) with 0.1% BSA. […] Positive control on the first reagent plate contained 15 μL of PSS (0.1% BSA), whereas PSS (0.1% BSA) containing 1 µM CVID and 10 µM nifedipine (final concentration) was used as a negative control. The fluorescence readings were recorded and converted as described previously, and agonist containing 90 mM KCl + 5 mM CaCl2 was used in the second addition.
Data were plotted and analyzed using GraphPad Prism v7.0 (GraphPad Software Inc., San Diego, CA, USA). A four-parameter logistic Hill equation with variable Hill coefficients was fitted to the data for concentration-response curves. Data are means ± SEM of n independent experiments. Statistical analysis was performed with a paired Student’s t-test with statistical significance at p < 0.05.

Test [1] deals with T2, recombinant hCaV3.1 channels (Homo sapiens, UniProt O43497).
T2 construct: host or cells: probably the CHO line expressing CaV3.1 (inferred: the transient HEK293T cells are assigned to FLIPR)
T2 sequence (O43497 whole entry): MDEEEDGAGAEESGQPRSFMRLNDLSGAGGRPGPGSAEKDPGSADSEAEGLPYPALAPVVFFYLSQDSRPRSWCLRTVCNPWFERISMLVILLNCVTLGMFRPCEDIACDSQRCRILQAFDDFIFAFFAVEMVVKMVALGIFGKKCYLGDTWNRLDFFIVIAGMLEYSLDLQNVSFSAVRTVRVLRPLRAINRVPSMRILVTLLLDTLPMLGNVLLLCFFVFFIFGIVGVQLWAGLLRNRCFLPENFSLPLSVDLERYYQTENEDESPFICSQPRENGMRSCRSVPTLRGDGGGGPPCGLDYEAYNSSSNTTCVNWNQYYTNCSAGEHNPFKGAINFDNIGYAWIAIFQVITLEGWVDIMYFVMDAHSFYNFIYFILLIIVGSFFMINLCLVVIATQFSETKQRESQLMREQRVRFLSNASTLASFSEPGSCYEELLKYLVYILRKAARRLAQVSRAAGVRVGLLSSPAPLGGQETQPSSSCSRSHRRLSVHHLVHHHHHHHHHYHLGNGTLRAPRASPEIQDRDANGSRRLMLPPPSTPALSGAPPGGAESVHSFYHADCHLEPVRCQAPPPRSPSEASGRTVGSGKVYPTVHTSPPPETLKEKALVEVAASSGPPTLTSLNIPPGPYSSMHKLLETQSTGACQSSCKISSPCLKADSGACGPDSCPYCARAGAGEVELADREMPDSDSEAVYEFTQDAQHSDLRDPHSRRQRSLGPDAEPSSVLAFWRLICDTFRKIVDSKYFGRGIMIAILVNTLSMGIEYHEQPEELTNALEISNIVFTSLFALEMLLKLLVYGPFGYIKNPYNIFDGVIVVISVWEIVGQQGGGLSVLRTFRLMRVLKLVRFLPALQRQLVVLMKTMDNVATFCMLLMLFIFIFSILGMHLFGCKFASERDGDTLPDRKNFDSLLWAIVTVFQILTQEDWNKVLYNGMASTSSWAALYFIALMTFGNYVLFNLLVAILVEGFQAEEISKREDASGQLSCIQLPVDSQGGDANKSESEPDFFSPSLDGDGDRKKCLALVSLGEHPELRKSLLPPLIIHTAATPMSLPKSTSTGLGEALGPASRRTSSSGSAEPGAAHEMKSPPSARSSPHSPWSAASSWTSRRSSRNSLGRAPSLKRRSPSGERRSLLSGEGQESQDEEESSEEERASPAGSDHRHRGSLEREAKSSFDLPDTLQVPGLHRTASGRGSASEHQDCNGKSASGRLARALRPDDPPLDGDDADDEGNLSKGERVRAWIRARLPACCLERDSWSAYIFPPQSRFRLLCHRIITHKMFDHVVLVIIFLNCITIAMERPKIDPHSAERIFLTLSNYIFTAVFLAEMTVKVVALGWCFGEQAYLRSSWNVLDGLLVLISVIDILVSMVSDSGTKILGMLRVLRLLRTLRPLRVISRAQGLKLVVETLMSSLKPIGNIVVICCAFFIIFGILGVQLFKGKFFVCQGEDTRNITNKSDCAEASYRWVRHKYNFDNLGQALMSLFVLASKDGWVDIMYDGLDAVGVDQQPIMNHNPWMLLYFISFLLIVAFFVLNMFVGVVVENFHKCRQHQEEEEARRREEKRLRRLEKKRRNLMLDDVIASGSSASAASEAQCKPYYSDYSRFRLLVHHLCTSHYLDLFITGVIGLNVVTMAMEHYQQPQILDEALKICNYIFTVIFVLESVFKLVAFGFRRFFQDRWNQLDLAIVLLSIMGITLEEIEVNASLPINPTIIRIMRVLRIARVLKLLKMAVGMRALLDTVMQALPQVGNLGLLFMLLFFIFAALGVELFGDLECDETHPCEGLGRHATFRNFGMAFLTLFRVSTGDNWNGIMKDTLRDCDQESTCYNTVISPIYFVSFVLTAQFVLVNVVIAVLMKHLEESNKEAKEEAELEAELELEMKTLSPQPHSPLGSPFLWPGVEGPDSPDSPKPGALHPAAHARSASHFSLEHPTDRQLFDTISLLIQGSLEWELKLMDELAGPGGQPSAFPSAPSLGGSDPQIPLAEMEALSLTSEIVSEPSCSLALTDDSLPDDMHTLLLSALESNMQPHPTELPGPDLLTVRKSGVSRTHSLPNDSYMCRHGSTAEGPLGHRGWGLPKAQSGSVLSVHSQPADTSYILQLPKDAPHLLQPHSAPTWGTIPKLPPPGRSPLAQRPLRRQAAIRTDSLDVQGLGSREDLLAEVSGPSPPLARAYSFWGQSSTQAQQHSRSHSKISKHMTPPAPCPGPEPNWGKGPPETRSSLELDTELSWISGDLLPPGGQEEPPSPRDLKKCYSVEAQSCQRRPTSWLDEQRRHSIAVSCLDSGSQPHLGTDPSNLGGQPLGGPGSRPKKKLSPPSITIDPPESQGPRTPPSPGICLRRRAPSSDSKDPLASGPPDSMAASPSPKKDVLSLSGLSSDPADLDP
As to the kind of experiment: Whole-cell patch-clamp QPatch 16 X, CaV3.1. On the procedure: as §1, with “After the transfection, the cells were cultured under 5% carbon dioxide at 37 °C for 24 h and then moved to a 28 °C incubator.” left out
(§2) Data were plotted and analyzed using GraphPad Prism v7.0 (GraphPad Software Inc., San Diego, CA, USA). […]
For orientation: The patch-clamp technique gives a direct electrical read-out from membranes.

Test [2] concerns the target recombinant hCaV3.2 channels (Homo sapiens, UniProt O95180). As to the kind of experiment: Whole-cell patch-clamp QPatch 16 X, CaV3.2. The procedure:
as §1
Whole-cell patch-clamp experiments were performed on an automated electrophysiology platform QPatch 16 X (Sophion Bioscience A/S, Ballerup, Denmark) in single-hole configuration using 16-channel planar patch chip QPlates (Sophion Bioscience A/S). The extracellular recording solution contained, in mM: TEACl 157, MgCl2 0.5, CaCl2 5, and HEPES 10; pH 7.4 adjusted with TEAOH; and osmolarity 320 mOsm. The intracellular pipette solution contained, in mM: CsF 140, EGTA 1, HEPES 10, and NaCl 10; pH 7.2 adjusted with CsOH; and osmolarity 325 mOsm. […]
as §2

Broadly, the IC50 is the concentration that inhibits the measured activity by half. The Emax is the greatest response seen or fitted, relative to the assay's reference.

recombinant hCaV3.2 channels, sequence (O95180 whole entry): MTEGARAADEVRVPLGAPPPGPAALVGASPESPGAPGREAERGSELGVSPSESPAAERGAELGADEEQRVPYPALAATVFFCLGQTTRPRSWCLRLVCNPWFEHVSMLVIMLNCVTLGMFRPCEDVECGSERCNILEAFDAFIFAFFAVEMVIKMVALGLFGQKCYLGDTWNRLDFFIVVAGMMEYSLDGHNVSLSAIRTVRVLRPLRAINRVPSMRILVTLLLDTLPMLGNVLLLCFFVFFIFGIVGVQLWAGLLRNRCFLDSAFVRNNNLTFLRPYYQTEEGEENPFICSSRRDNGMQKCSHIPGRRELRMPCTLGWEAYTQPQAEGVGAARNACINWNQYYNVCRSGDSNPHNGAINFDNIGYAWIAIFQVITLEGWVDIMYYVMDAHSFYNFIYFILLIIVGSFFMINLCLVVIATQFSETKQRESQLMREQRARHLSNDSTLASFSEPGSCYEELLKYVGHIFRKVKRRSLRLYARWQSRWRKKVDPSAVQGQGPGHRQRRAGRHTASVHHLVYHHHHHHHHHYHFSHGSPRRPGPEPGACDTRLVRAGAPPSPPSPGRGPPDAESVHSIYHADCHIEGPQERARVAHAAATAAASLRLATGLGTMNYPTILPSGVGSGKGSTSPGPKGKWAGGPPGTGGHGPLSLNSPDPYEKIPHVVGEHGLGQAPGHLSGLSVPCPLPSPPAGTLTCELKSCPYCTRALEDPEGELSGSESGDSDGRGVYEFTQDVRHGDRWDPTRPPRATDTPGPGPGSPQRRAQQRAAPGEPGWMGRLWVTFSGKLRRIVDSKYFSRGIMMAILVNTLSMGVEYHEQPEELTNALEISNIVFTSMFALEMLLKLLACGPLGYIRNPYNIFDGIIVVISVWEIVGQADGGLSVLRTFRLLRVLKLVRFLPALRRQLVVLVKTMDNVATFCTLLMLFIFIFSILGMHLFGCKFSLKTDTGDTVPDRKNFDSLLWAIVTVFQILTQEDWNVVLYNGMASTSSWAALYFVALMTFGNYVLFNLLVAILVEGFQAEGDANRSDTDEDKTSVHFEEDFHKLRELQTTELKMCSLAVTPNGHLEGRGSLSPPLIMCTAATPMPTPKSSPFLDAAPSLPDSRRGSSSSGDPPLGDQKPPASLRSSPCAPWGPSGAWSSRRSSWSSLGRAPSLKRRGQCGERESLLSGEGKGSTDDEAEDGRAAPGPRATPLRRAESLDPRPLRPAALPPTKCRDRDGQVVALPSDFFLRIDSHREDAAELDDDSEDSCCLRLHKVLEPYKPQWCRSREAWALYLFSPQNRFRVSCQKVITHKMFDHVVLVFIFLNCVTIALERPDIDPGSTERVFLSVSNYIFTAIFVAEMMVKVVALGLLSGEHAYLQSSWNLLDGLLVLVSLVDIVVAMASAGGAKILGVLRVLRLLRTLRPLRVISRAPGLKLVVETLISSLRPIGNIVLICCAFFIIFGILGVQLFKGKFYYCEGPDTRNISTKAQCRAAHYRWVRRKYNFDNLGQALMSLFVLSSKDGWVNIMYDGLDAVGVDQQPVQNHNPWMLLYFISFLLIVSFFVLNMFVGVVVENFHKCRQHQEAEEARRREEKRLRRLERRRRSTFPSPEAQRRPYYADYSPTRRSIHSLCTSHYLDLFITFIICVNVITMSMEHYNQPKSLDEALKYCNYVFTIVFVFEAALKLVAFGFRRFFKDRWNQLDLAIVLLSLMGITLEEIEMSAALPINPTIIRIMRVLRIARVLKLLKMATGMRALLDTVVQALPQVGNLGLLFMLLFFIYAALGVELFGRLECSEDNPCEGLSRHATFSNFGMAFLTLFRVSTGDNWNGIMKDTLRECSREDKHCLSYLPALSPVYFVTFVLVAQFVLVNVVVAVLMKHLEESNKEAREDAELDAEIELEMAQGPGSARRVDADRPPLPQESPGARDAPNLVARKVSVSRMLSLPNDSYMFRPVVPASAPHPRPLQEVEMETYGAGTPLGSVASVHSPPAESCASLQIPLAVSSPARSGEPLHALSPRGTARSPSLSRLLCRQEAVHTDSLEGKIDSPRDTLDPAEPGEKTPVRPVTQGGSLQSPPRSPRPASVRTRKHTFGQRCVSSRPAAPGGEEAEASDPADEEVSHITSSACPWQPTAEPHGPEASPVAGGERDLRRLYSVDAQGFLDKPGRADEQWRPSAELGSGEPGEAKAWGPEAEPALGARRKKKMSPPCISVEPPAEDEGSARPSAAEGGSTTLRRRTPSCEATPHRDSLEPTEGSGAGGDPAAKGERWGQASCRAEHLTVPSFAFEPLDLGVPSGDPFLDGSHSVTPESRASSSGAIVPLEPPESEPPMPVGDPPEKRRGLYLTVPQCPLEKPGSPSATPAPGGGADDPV

With `COC(=O)[C@H](Cc1c[nH]c2ccccc12)NC(=O)C(C)(c1c[nH]c2ccccc12)c1c[nH]c2ccccc12` [Compound 3, Methyl (2,2-di(1H-indol-3-yl)propanoyl)-L-tryptophanate], the IC50 was determined as 31.3 ± 3.4 µM on N-type CaV2.2 and 8.82 ± 2.3 µM in test [2] (QPatch, 200 ms steps to Vmax (−20 mV) from holding −90 mV, n = 4–5, mean ± SEM, read-out: IC50 CaV3.2 whole-cell current). Moreover, in test [1] (QPatch versus FLIPR, better for activated currents), the “Potency for CaV3.1-activated currents relative to CaV3.1 window currents” value is listed as greater than 7 fold. For the same compound, the Emax in test [1] (QPatch whole-cell, partial block, read-out: Emax value, block of CaV3.1 current) was 82.8 ± 2.55%; in test [2] (QPatch whole-cell, full inhibition, read-out: Emax value, inhibition of CaV3.2 whole-cell current), no less than 95%. In test [1] (QPatch, in the presence of compound), the “Voltage-dependence of steady-state inactivation of CaV3.1, in words” value is recorded as “not significantly shifted”. In test [2] (0.6 µM compound, control V50 −65.40 ± 1.91 mV (n = 9), n = 4–5), the “Half-maximal steady-state inactivation V50 of CaV3.2 in the presence of compound” value is given as −76.36 ± 1.56 mV. Further, the “Shift of half-maximal inactivation V50 of CaV3.2 to hyperpolarized potentials” value in test [2] (steady-state inactivation, 0.6 µM compound, versus control) was found to be 11 mV.
